Experimental data: patent publication US20150166664A1, “NOVEL THERAPEUTIC TREATMENTS WITH ANTI-HER2 ANTIBODIES HAVING A LOW FUCOSYLATION” (Glycotope GmbH, priority 2012, published 2015)

What was measured:
SK-BR-3 cells = test: MTT proliferation assay; format: cell-based, human; conditions: 20 nM, 4 days, positive control
Description: MTT assay is a non-radioactive assay based on the cleavage of the soluble yellow tetrazolium salt MTT (3-[4,5-Dimethylthiazol-2-yl]-2,5-diphenyltetrazolium bromide; Thiazolyl Blue) by mitochondrial dehydrogenases of viable cells. […] The absorption signal is a direct measure of viable cells in the culture.
Briefly, SK-BR-3 cells were grown for 2 days in 96-well flat bottom plates. […] Supernatant was completely removed and MTT was added. Cells were incubated for 2 hours with MTT at 37° C. in a humidified CO2 incubator. The supernatant was removed and cells were lysed using HCl and 2-propanol containing lysis buffer for 1 h at room temperature in the dark. Absorption at 570 nm/630 nm was measured in a plate reader Infinite F200 (Tecan Austria GmbH).

[1] = test system: incurable, locally advanced, recurrent or metastatic solid tumors; conditions: i.v. every 3 weeks, cited from earlier work
[2] = Prevention of infusion related reactions by pre-medication; format: in vivo, human; conditions: pretreatment with paracetamol 1000 mg evening before and 1 h before, optionally methylprednisolone 125 mg 30 min before
Description: Without the use of steroids, IRRs occurred in all but one patient, at least once (grade 1 to 3). Therefore, it is recommended to use a pre-medication comprising and preferably consisting of steroids and paracetamol and to restrict the respective pre-medication to the first infusion and the single next infusion following an IRR. Preferably, paracetamol is given on the evening before and one hour before the infusion with the reduced […] anti-HER2 antibody. Steroids (for example 125 mg methylprednisolone) preferably will be administered 30 minutes before the infusion to the patient.

## CC(=O)O[C@H]1C(=O)[C@@]2(C)[C@H]([C@H](OC(=O)c3ccccc3)[C@]3(O)C[C@H](OC(=O)[C@H](O)[C@@H](NC(=O)c4ccccc4)c4ccccc4)C(C)=C1C3(C)C)[C@]1(OC(C)=O)CO[C@@H]1C[C@@H]2O [Taxol, paclitaxel]
SK-BR-3 cells
  proliferation compared to the medium control: 6%

## pertuzumab: anti-HER2 antibody, HER dimerisation inhibitor
[1]
  confirmed partial responses: 2 Patients
[1]; patients evaluable for response
  tumor regression: 3 of 20

## CC(=O)Nc1ccc(O)cc1 [paracetamol, N-(4-hydroxyphenyl)acetamide]
[2]
  patients who did not show any IRR upon Fuc− trastuzumab infusion: ~50%
